The NIST ThermoML archive (doi:10.1021/acs.jced.5b00474)

Assay: xn = mol fraction of the nth substance listed
Details: 101 kPa, Liquid; for speed of sound: Frequency=3 MHz, Sing-around technique in a fixed-path interferometer; for mass density: Vibrating tube method

O=C1CCCN1 [2-pyrrolidinone] + CC#N
Details	mass density [kg/m3]	speed of sound [m/s]
298.15 K, x1 = 0.1025	827.196	1311.2
298.15 K, x1 = 0.1865	864.997	1337
298.15 K, x1 = 0.3069	913.434	1380.2
298.15 K, x1 = 0.3976	946.686	1414.4
298.15 K, x1 = 0.4974	979.551	1451.9
298.15 K, x1 = 0.605	1012.17	1492.9
298.15 K, x1 = 0.695	1036.85	1526.1
298.15 K, x1 = 0.7932	1061.58	1561.6
298.15 K, x1 = 0.8972	1085.63	1598.1
303.15 K, x1 = 0.1025	821.985	–
303.15 K, x1 = 0.1865	859.946	1317.8
303.15 K, x1 = 0.3069	908.581	1362.3
303.15 K, x1 = 0.3976	941.969	1396.8
303.15 K, x1 = 0.4974	974.979	1434.8
303.15 K, x1 = 0.605	1007.72	1476
303.15 K, x1 = 0.695	1032.51	1509.5
303.15 K, x1 = 0.7932	1057.33	1545.2
303.15 K, x1 = 0.8972	1081.46	1582.1
308.15 K, x1 = 0.1025	816.754	–
308.15 K, x1 = 0.1865	854.873	1298.8
308.15 K, x1 = 0.3069	903.718	1344.4
308.15 K, x1 = 0.3976	937.251	1379.3
308.15 K, x1 = 0.4974	970.394	1417.7
308.15 K, x1 = 0.695	1028.15	1492.4
308.15 K, x1 = 0.8972	1077.29	1565.9
308.16 K, x1 = 0.605	1003.27	1459.2
308.16 K, x1 = 0.7932	1053.07	1528.7
313.15 K, x1 = 0.1025	811.493	–
313.15 K, x1 = 0.1865	849.779	1280.1
313.15 K, x1 = 0.3069	898.84	1326.7
313.15 K, x1 = 0.605	998.811	1442.4
313.15 K, x1 = 0.7932	1048.82	1512.3
313.15 K, x1 = 0.8972	1073.12	1549.8
313.16 K, x1 = 0.3976	932.515	1361.9
313.16 K, x1 = 0.4974	965.8	1400.7
313.16 K, x1 = 0.695	1023.8	1475.5
318.15 K, x1 = 0.1025	806.204	–
318.15 K, x1 = 0.1865	844.673	1261.4
318.15 K, x1 = 0.3976	927.77	1344.6
318.15 K, x1 = 0.605	994.35	1425.7
318.15 K, x1 = 0.695	1019.44	1458.7
318.15 K, x1 = 0.7932	1044.56	1496.1
318.15 K, x1 = 0.8972	1068.96	1533.8
318.16 K, x1 = 0.3069	893.944	1308.8
318.16 K, x1 = 0.4974	961.2	1383.7
323.15 K, x1 = 0.8972	1064.8	1517.9
323.16 K, x1 = 0.1025	800.887	–
323.16 K, x1 = 0.1865	839.54	1242.8
323.16 K, x1 = 0.3069	889.032	1290.5
323.16 K, x1 = 0.3976	923.008	1327.3
323.16 K, x1 = 0.4974	956.587	1366.8
323.16 K, x1 = 0.605	989.88	1408.9
323.16 K, x1 = 0.695	1015.08	1441.8
323.16 K, x1 = 0.7932	1040.3	1479.9
